Active and inactive are the calls of the source. The rule behind the calls is not given here.
Tests used:
[1] = test system: AMPK; test: Activation of AMPK gamma (unknown origin) assessed as increase in phosphorylation of SAMS peptide by measuring fold change at 10 uM measured after 30 mins by ADP-Glo assay; details: Homo sapiens, filed as activator
[2] = test system: N2a-APPswe; test: Activation of AMPK in mouse N2a APPswe cells assessed as increase in phosphorylation by measuring pAMPK/AMPK ratio at 10 uM measured after 24 hrs by Western blot analysis; format: cell-based; details: filed as activator
[3] = test system: N2a-APPswe; test: Activation of AMPK in mouse N2a-APPswe cells assessed as increase in phosphorylation by measuring pACC/ACC ratio at 10 uM measured after 24 hrs by Western blot analysis; format: cell-based; details: filed as activator
[4] = test system: N2a-APPswe; test: Activation of AMPK in mouse N2a-APPswe cells assessed as increase in phosphorylation by measuring pAMPK/AMPK ratio at 5 uM measured after 24 hrs by Western blot analysis; format: cell-based; details: filed as activator
[5] = Cytotoxicity against mouse N2a-APPswe cells assessed as cell viability at 5 uM measured after 24 hrs by WST-1 assay; format: toxicity, cell-based
[6] = test system: N2a-APPswe; test: Activation of AMPK in mouse N2a-APPswe cells assessed as increase in phosphorylated Raptor at Ser792 at 10 uM measured after 3 hrs by Western blot analysis; format: cell-based; details: filed as activator
[7] = test system: N2a-APPswe; test: Activation of AMPK in mouse N2a-APPswe cells assessed as increase in phosphorylated AMPK at Thr172 at 10 uM measured after 3 hrs by Western blot analysis; format: cell-based; details: filed as activator
[8] = test system: N2a-APPswe; test: Activation of AMPK in mouse N2a-APPswe cells assessed as increase in phosphorylated ACC at Ser79 at 10 uM measured after 3 hrs by Western blot analysis; format: cell-based; details: filed as activator

Structure (SMILES) | fold change (FC) [1] | fold change (FC) [2] | fold change (FC) [3] | other results
COc1ccc(/C=C/C(=O)c2cccc(NS(=O)(=O)c3ccc(Cl)cc3)c2)cc1 | 1.82 |  |  | 
CCOC(=O)N1CCN(C(=O)c2ccc(N3CCC(NCCn4nc(C)cc4C)CC3)cc2)CC1 |  | > 1 | > 1 | 
Cc1ccc(C)c(Oc2coc3cc(OCC(=O)OCC(C)C)ccc3c2=O)c1 |  | > 1 |  | 
COc1ccc(OC)c(/C=C/C(=O)c2cccc(N)c2)c1 | 2.62 |  |  | fold change (FC) [4]: > 1; Activity [5]: Non-toxic
COc1cc(O)ccc1/C=C/C(=O)c1ccc(N2CCNCC2)cc1 | 1.51 |  |  | 
Cn1ccnc1CNC(=O)CCc1nnc(-c2ccc(-c3ccccc3)cc2)o1 |  | > 1 | > 1 | 
Cc1ccc(C)c(Oc2coc3cc(OCc4ccc(F)cc4)ccc3c2=O)c1 |  | > 1 |  | 
O=C(CCn1cnnn1)N1CCCC(N2CCN(c3cccc(C(F)(F)F)c3)CC2)C1 (centres undefined) |  | > 1 | > 1 | 
CN1CCN(c2ccc(C(=O)/C=C/c3ccc(O)cc3)cc2)CC1 | 1.52 |  |  | 
O=C(/C=C/c1ccc(N2CCCCC2)cc1)c1ccc(O)cc1 | 2.96 |  |  | fold change (FC) [4]: > 1; Activity [5]: Non-toxic
Cc1ccc(C)c(Oc2coc3cc(OC(=O)c4ccc(-c5ccccc5)cc4)ccc3c2=O)c1 |  | > 1 |  | 
Cc1ccccc1-c1noc(CCC(=O)NC(C)c2ccccc2-n2cccn2)n1 (centres undefined) |  | > 1 | > 1 | 
N#CC1C(=O)Nc2scc(-c3ccc(-c4ccccc4O)cc3)c2C1=O (centres undefined) |  | > 1 | > 1 | fold change (FC) [4]: > 1
COCCN1C(=O)N(Cc2cccnc2)C(=O)C12CCN(Cc1nc(-c3ccccc3)cs1)CC2 |  | > 1 | < 1 | 
COc1ccc(/C=C/C(=O)c2cccc(N)c2)cc1 | 2.3 |  |  | fold change (FC) [4]: > 1; Activity [5]: Non-toxic
COc1ccc2c(=O)c(Oc3cc(C)ccc3C)coc2c1 |  | > 1 |  | 
Cc1ccc(C)c(Oc2coc3cc(OCC(=O)OC4CCCCC4)ccc3c2=O)c1 |  | > 1 |  | 
COc1ccc(OC)c(/C=C/C(=O)c2ccc(N)cc2)c1 | 1.93 |  |  | 
Cc1cc(C)c(C)c(Oc2coc3cc(OC(=O)C(C)N4C(=O)c5ccccc5C4=O)ccc3c2=O)c1 (centres undefined) |  | > 1 |  | 
Cc1ccc(C)c(Oc2coc3cc(OC(=O)c4cccc(Br)c4)ccc3c2=O)c1 |  | > 1 | > 1 | 

Structure (SMILES) | fold change (FC) [1] | fold change (FC) [2] | fold change (FC) [3] | other results
CN1[C@@H](c2ccccc2)[C@@H](C(=O)NCCn2ccnc2)C[C@@]1(C)C(=O)O |  | > 1 | > 1 | 
COc1ccc(OC)c(/C=C/C(=O)c2cccc(N(S(=O)(=O)c3ccc(Cl)cc3)S(=O)(=O)c3ccc(Cl)cc3)c2)c1 | 2.53 |  |  | fold change (FC) [4]: > 1; Activity [5]: Non-toxic
Cc1ccc(C)c(Oc2coc3cc(OCc4ccc(Cl)cc4Cl)ccc3c2=O)c1 |  | > 1 |  | 
CCOC(=O)c1nn(CCCc2ccccc2)c2c1CN(C(=O)Cn1nc3ccccc3n1)CC2 |  | > 1 | > 1 | 
Cc1ccc(C)c(Oc2coc3cc(OCCc4ccccc4)ccc3c2=O)c1 |  | > 1 |  | 
COc1ccc(OC)c(/C=C/C(=O)c2cccc(NS(=O)(=O)c3ccc(Cl)cc3)c2)c1 | 1.94 |  |  | 
COc1cc(O)ccc1/C=C/C(=O)c1cccc(N)c1 | 1.73 |  |  | 
COc1ccc(/C=C/C(=O)c2ccc(N)cc2)c(OC)c1 |  |  |  | Activity [5]: Non-toxic
O=C(O)C1CCCN(C(=O)Cn2nc(-c3ccc4ccccc4c3)ccc2=O)C1 (centres undefined) |  | > 1 | > 1 | 
COc1ccc(OC)c(C(=O)c2ccc(C(=O)N3CCc4c(cnc(C)c4CNC(C)=O)C3)cc2)c1 |  | > 1 | > 1 | 
O=C(/C=C/c1ccc(N2CCCCC2)cc1)c1ccc(O)cc1O | 2.48 |  |  | fold change (FC) [4]: > 1; Activity [5]: Non-toxic
Cc1ccc(CCC(=O)Nc2ccc3c(c2)CN(C(=O)CCn2cnnn2)CC3)cc1 |  | > 1 | > 1 | 
NC(=O)c1ncn([C@@H]2O[C@H](CO)[C@@H](O)[C@H]2O)c1N |  | > 1 | > 1 | 
COc1ccc(OC)c(/C=C/C(=O)c2ccc(NS(=O)(=O)c3ccc(Cl)cc3)cc2)c1 | 2.45 |  |  | Activity [6]: Active; fold change (FC) [4]: > 1; Activity [5]: Non-toxic; Activity [7]: Active; Activity [8]: Active
Nc1ccc(C(=O)/C=C/c2ccc(N3CCCCC3)cc2)cc1 | 2.16 |  |  | fold change (FC) [4]: > 1; Activity [5]: Non-toxic
Cc1cc(-c2cc3c(n(Cc4cccnc4)c2=O)CCN(C(=O)c2ccc4c(c2)OCO4)C3)ccc1F |  | > 1 | > 1 | 
Nc1cccc(C(=O)/C=C/c2ccc(N3CCCCC3)cc2)c1 | 2.05 |  |  | fold change (FC) [4]: > 1; Activity [5]: Non-toxic
CCOCCOC(=O)COc1ccc2c(=O)c(Oc3cc(C)ccc3C)coc2c1 |  | > 1 |  | 
Cc1ccc(NCc2ccc(C(=O)N3CCC(C(=O)O)CC3)cc2)cc1 |  | > 1 | > 1 | 

From ChEMBL document CHEMBL6103582, “Computer-aided discovery of novel AMPK activators through virtual screening and SAR-driven synthesis” (Eur J Med Chem, 2025)
